Data from patent US20260151398A1, “COMPOUNDS FOR REDUCING CHOLESTEROL AND TREATING LIVER AND KIDNEY DISEASE” (McMaster University, priority 2021, published 2026).
“Also recorded” adds a separate entry of the source.

Key:
PCSK9 [1] = experiment: PCSK9 secretion from cultured and primary hepatocytes (ELISA of medium); format: cell-based, human, mouse; conditions: for PCSK9 secretion with Ca2+-modulating agents: ELISA of medium
Experimental: HuH7 and HepG2 cells were routinely grown in complete Dulbecco's Modified Eagle's Medium (Gibco, Thermofisher Scientific) supplemented with 10% fetal bovine serum (Sigma-Aldrich) and 100 U/ml of penicillin and streptomycin (Sigma-Aldrich). […] All cell treatments were carried out for 24 h unless otherwise stated. Cells were transfected with a cocktail consisting of plasmid DNA (1 μg), X-tremeGENE HP (3 μl; Thermofisher Scientific) and opti-MEM (100 μl; Thermofischer Scientific) per 1 ml complete medium containing plated cells. Human PCSK9 was overexpressed using the bicistronic pIRES-EGFP plasmid; calnexin using the mPA-GFP-N1 plasmid. To block the expression of GRP78 and CD36, siGENOME smartpool siRNA was purchased from GE Dharmacon (M-008198-02 and L-010206-00-0005 respectively) and transfected using lipofectamine RNAiMAX as per manufacturer's protocol.
(§1) Secreted PCSK9 levels were assessed directly in cell culture medium of cells grown in FBS-free medium for 24 h or in the serum isolated from either mice or human subjects. Mouse PCSK9 was measured using the Quantikinine® ELISA kit (#MCP900, R&D Systems) and human PCSK9 using the PCSK9 Quantikinine® ELISA kit (#DCP900, R&D Systems). Serum ApoB levels were also quantified using ELISAs (#DAPB00, R&D Systems). Serum samples were diluted as per manufacturer's instructions.
(§2) All animal studies were carried out in 8 h-fasted male wild-type, Pcsk9^−/− or Ampkβ1^−/− mice on the C57BL/6J background. CF (25-100 mg/kg-8 h) and CDN (50 mg/kg) treatments were administered via intraperitoneal injection unless specified otherwise. Primary mouse hepatocytes were isolated using a two-step process with EGTA ([…] in HEPES buffer, Sigma Aldrich) and collagenase (0.05% in HEPES buffer, Sigma Aldrich) in 12-week-old male mice on the C57BL/6J background. Cells were then washed, centrifuged, and plated following isolation in cell strainers. Hepatosure® 100-donor pooled primary human hepatocytes were purchased from Xenotech. Primary hepatocytes were regularly grown in William's E medium (Gibco, Thermo Fisher Scientific) containing 10% fetal bovine serum, 100 IU/ml penicillin, and 100 µg/ml streptomycin.

C57BL/6J mice = experiment: Mouse studies: circulating PCSK9, triglycerides, ApoB and hepatic markers; format: in vivo
Experimental: Liver tissues were fixed in formaldehyde and subsequently embedded in paraffin for sectioning. […] Slides were then exposed to biotin-conjugated secondary antibodies for 45 minutes and then streptavidin peroxidase for 10 minutes. Staining was visualized using the Nova Red HRP Substrate (Vector Laboratories).
Mouse PCSK9 was measured using the Quantikinine® ELISA kit (#MCP900, R&D Systems) and human PCSK9 using the PCSK9 Quantikinine® ELISA kit (#DCP900, R&D Systems). Serum ApoB levels were also quantified using ELISAs (#DAPB00, R&D Systems). Serum samples were diluted as per manufacturer's instructions.
as §2
Next, the effect of CF on PCSK9 expression/secretion and ER stress marker expression was assessed in mice. […] Immunohistochemical staining intensities were quantified using ImageJ Software (FIG. 9 E).

calnexin = experiment: Calnexin protein expression in HuH7 cells (immunoblot); format: cell-based, human
Experimental: Cells were washed in phosphate-buffered saline (PBS), lysed in 4× SDS-PAGE lysis buffer and separated on 7-10% polyacrylamide gels in denaturing conditions. Gels were transferred to nitrocellulose membranes using the BioRad mini trans-blot system, blocked in 5% skim milk in tris-buffered saline (TBS) for 1 h and incubated in primary antibody overnight for 16 h at 4° C. Membranes were then exposed to horse radish peroxidase conjugated secondary antibodies and visualized using EZ-ECL chemiluminescent reagent (Froggabio). Band intensities were quantified using ImageJ software ([…]) against membranes reprobed for housekeeping proteins.
Among the many intracellular effects of CF on the cell, its ability to increase intracellular Ca^2+ levels is well-studied (Echeverri, D., et al., 2010). […] ER Ca^2+ levels were then examined in cells transfected with D1ER; a genetically-encoded ER-resident fluorescence resonance energy transfer (FRET)-based […] chameleon Ca^2+ sensor, which increases in fluorescence intensity upon Ca^2+ binding (Palmer, A. E., et al., 2004). The low-affinity Ca^2+ indicator, Mag-Fluo-4, was also utilized for the direct assessment of ER Ca^2+ and increases in fluorescence intensity upon Ca^2+ binding (Diercks, B. P., et al., 2017; Lebeau, P., et al., 2021). […] ER Ca^2+ content was also assessed indirectly with the high affinity Ca^2+ dye, fura-2-AM (FIG. 6 B). […]

PCSK9 [2] = experiment: Plasma PCSK9 in healthy human subjects after oral CF; format: in vivo; conditions: fasted healthy subjects, 400 mg orally (~5 mg/kg)
Experimental: as §1
Healthy human subjects between the ages of 22 and 45 underwent fasting for 12 h prior to oral administration of 400 mg CF (˜5 mg/kg). Blood was collected prior to administration and at h 2 and 4 following administration.
Given that CF is among the most commonly consumed pharmacologically active compounds in the world (8), its ability to affect PCSK9 levels in fasted healthy volunteers was assessed. Serum was collected prior to, as well as 2- and 4-h post CF treatment (400 mg orally; ˜5 mg/kg). Consistent with the observations in cultured hepatocytes and in mice, CF reduced plasma PCSK9 levels in healthy subjects by 25% (n=12) and 21% (n=8) at the 2- and 4-h time points, respectively (FIG. 11 A and B).

[3] = 18-week-old C57BL/6J mice, CF 30 mg/kg every 24 hours for 14 days

Structure (SMILES) | PCSK9 secretion with Ca2+-modulating agents (PCSK9 [1]) | hepatic LDLR expression (CDN) (C57BL/6J mice; mice, 50 mg/kg, IP, 8 h) | calnexin protein expression (calnexin) | PCSK9 secretion (PCSK9 [1]; HuH7, HepG2, PMH, PHH, listed as CF) | serum Apolipoprotein B (ApoB) (C57BL/6J mice; [3]) | serum PCSK9 after daily dosing (C57BL/6J mice; [3]) | circulating PCSK9 levels after oral gavage (C57BL/6J mice; mice, CF 20 mg/kg oral gavage, listed as CF) | circulating PCSK9 levels (C57BL/6J mice; mice, CF 50 mg/kg IP, 8 h) | circulating triglyceride levels (C57BL/6J mice; mice, CF 50 mg/kg IP, 8 h) | time required to significantly reduce plasma PCSK9 (C57BL/6J mice; mice, time-course) | hepatic expression of UPR markers / chaperones (C57BL/6J mice; mouse liver, CF 50 mg/kg, 8 h, listed as CF) | reduction of plasma PCSK9 levels at 2 h (PCSK9 [2]; 2 h) | reduction of plasma PCSK9 levels at 4 h (PCSK9 [2]; 4 h)
Cc1ccc2cccc(NC(=O)c3ccc(OC(C)C)cc3)c2n1 [CDN] | blocked PCSK9 secretion | increased hepatic LDLR expression |  |  |  |  |  |  |  |  |  |  | 
C/C=C(/C)C(=O)O[C@H]1C(C)=C2[C@H]([C@@H]1OC(=O)CCCCCCC)[C@@](C)(OC(C)=O)C[C@H](OC(=O)CCC)[C@@]1(O)[C@H]2OC(=O)[C@@]1(C)O [TG, thapsigargin] | blocked PCSK9 secretion |  | blocked |  |  |  |  |  |  |  |  |  | 
Cn1c(=O)c2c(ncn2C)n(C)c1=O [caffeine, 1,3,7-Trimethylxanthine] |  |  | induced | blocked the secretion of PCSK9; also recorded: blocks PCSK9 expression and secretion | reduction | reduction | reduced circulating PCSK9 levels; also recorded: reduces plasma PCSK9 levels | significant reduction | significant reduction | 4 h | reduced the expression of UPR markers; also recorded: reduces chaperone expression | 25% | 21%
